Measured values published in patent publication US8536175B2, “Quinoxaline carboxamide derivatives as protein tyrosine kinase inhibitors” (Novartis AG, priority 2008, dated 2013).

Each compound was assayed against FGFR3 kinase (Homo sapiens (Human), UniProt P22607, K650E) (assay: FGFR3 kinase inhibition (protein kinase activity assays)). Conditions: average of 2 independent measurements; * single value; read-out: FGFR3 IC50.
Type: biochemical
Protocol: generic assay set-up: Enzyme activities were measured by mixing 10 μL of a 3-fold concentrated compound solution or control with 10 μL of the corresponding substrate mixture (peptidic substrate, ATP and [γ^33P]ATP). The reactions were initiated by addition of 10 μL of a 3-fold concentrated solution of the respective enzyme in assay buffer. […] Filter binding (FB) method: FB assays were carried out in 96-well plates at room temperature for 10 min in a finial volume of 30 μL including the components as indicated in section above. […] After spotting, vacuum was connected and each well rinsed with 200 μL 0.5% H3PO4. Free membranes were removed and washed 4 times on a shaker with 1% H3PO4 and once with ethanol. Membranes were dried and overlaid with addition of 10 μL/well of a scintillation fluid. The plates were eventually sealed and counted in a microplate scintillation counter. IC50 values were calculated by linear regression analysis of the percentage inhibition of the compound.
generic assay set-up: The assay has been run at room temperature on a liquid handling robot. […] After an incubation time of 45 min in the dark, the plates were transferred into a fluorescence reader for counting.
Compounds of formula (I) are assayed to measure their capacity to inhibit FGFR3 kinase as described above.

Chain of FGFR3 kinase (P22607 23-806 K650E): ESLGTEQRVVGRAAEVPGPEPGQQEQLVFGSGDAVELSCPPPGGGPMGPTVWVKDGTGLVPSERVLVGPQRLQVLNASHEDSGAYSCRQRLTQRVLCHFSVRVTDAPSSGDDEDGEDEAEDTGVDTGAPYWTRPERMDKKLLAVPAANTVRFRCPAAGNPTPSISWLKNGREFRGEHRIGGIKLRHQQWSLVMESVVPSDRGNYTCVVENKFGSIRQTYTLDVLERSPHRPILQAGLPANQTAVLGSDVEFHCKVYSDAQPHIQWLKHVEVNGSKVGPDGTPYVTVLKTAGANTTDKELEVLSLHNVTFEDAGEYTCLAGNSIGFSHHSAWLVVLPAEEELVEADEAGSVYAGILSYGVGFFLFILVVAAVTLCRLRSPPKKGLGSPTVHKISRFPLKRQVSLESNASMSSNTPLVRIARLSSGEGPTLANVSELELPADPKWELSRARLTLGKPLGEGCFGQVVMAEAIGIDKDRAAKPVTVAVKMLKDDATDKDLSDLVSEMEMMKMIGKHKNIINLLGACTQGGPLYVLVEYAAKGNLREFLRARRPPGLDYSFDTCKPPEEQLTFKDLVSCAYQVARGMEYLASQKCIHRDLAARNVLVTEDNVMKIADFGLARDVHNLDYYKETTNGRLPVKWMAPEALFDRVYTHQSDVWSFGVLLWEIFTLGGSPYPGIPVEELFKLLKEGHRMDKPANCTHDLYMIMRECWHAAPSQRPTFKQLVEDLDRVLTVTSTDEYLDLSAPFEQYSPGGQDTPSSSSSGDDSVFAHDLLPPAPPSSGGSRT

Structure (SMILES)	IC50
COc1cc(OC)c(Cl)c(-c2ccc(C(=O)Nc3ccc(C(N)=O)cc3)c3nccnc23)c1Cl [Example 3, 8-(2,6-Dichloro-3,5-dimethoxy-phenyl)-quinoxaline-5-carboxylic acid (4-carbamoyl-phenyl)-amide]	> 10000 nM

Same assay, conditions: read-out: rating (FGFR3 kinase IC50)

Structure (SMILES)	IC50
COc1cc(OC)c(Cl)c(-c2ccc(C(=O)Nc3ncc[nH]3)c3ncccc23)c1Cl [Example 161, 5-(2,6-Dichloro-3,5-dimethoxy-phenyl)-quinoline-8-carboxylic acid (1H-imidazol-2-yl)-amide]	< 100 nM
COc1cc(OC)c(Cl)c(-c2ccc(C(=O)Nc3cnc[nH]3)c3ncccc23)c1Cl [Example 162, 5-(2,6-Dichloro-3,5-dimethoxy-phenyl)-quinoline-8-carboxylic acid (3H-imidazol-4-yl)-amide]	100 to 500 nM
COc1cc(OC)c(Cl)c(-c2ccc(C(=O)Nc3ccc(CN(C)CCN(C)C)cn3)c3nccnc23)c1Cl [Example 81, 8-(2,6-Dichloro-3,5-dimethoxy-phenyl)-quinoxaline-5-carboxylic acid (5-{[(2-dimethylamino-ethyl)-methyl-amino]-methyl}-pyridin-2-yl)-amide]	< 100 nM
COc1cc(OC)c(Cl)c(-c2ccc(C(=O)Nc3ccc(CN4CCN(C)CC4)cn3)c3ncccc23)c1Cl [Example 164, 5-(2,6-Dichloro-3,5-dimethoxy-phenyl)-quinoline-8-carboxylic acid [5-(4-methyl-piperazin-1-ylmethyl)-pyridin-2-yl]amide]	< 100 nM
COc1cc(OC)c(Cl)c(-c2ccc(C(=O)Nc3nnc[nH]3)c3nccnc23)c1Cl [Example 163, 8-(2,6-Dichloro-3,5-dimethoxy-phenyl)-quinoxaline-5-carboxylic acid (4H-[1,2,4]triazol-3-yl)-amide]	500 to 50000 nM
COc1cc(OC)c(Cl)c(-c2ccc(C(=O)Nc3ccc(CN4CCNCC4)nc3)c3ncccc23)c1Cl [Example 171, 5-(2,6-Dichloro-3,5-dimethoxy-phenyl)-quinoline-8-carboxylic acid (6-piperazin-1-ylmethyl-pyridin-3-yl)-amide]	500 to 50000 nM
CCN1CCN(Cc2ccc(NC(=O)c3ccc(-c4c(Cl)c(OC)cc(OC)c4Cl)c4cccnc34)nc2)CC1 [Example 165, 5-(2,6-Dichloro-3,5-dimethoxy-phenyl)-quinoline-8-carboxylic acid [5-(4-ethyl-piperazin-1-ylmethyl)-pyridin-2-yl]-amide]	100 to 500 nM
COc1cc(OC)c(F)c(-c2ccc(C(=O)Nc3ccc(CN4CCN(C)CC4)nc3)c3nccnc23)c1F [Example 89, 8-(2,6-Difluoro-3,5-dimethoxy-phenyl)-quinoxaline-5-carboxylic acid [6-(4-methyl-piperazin-1-ylmethyl)-pyridin-3-yl]-amide]	< 100 nM
